In the case of `Cc1cc(C2=NN(C(=O)C=CCC(=O)O)C(C)Cc3cc4c(cc32)OCO4)ccc1[N+](=O)[O-]` (centres undefined), the melting point lay in the range of 158 to 160 °C.

As for `O=C1COc2cc(S(=O)(=O)c3ccccc3)ccc2N1CC1=NCCN1`, the melting point fell in the range of 114 to 116 °C.

`CCCOc1ccccc1-c1ncc(C(=O)NC)c(=O)[nH]1` had a melting point of 190 to 191 °C.

`O=C(c1cccnc1)N1CC2CCC(C1)O2` showed a melting point of 48 to 49.5 °C.

`CN1C(=O)c2cccc(S(=O)(=O)Cl)c2C1=O`: the melting point lay within 159 to 162 °C.

In the case of `O=C(O)Cc1cc(OCc2ccc3ccccc3n2)ccc1Nc1c(Cl)cccc1Cl`, the melting point was found to be 162 °C.

As for `N#CCCNC(=O)c1cccc(-c2cccc(Oc3cc(Cl)ccc3Cl)n2)c1`, the melting point was in the range of 149 to 150 °C.

With `CCOc1cc(Cn2cc(CCC(=O)O)c(OCC)n2)ccc1OCc1nc(-c2ccccc2)oc1C`, the melting point lay within 105 to 106 °C.

Compound `O=C(c1ccc([N+](=O)[O-])o1)N1CCN(CC(O)COc2cccc3[nH]c4ccccc4c23)CC1` (centres undefined) showed a melting point of 178 to 181 °C.

`CC1CC2C3CCC4=CC(=O)C=CC4(C)C34OC4CC2(C)C1(O)C(=O)CO` (centres undefined): the melting point was in the range of 238 to 240 °C.

In the case of `CC(C#Cc1ccc(-c2cccnc2S)o1)N(O)C(N)=O` (centres undefined), the melting point turned out to be 145 °C.

For `Cc1ccc(C(F)(F)F)cc1[N+](=O)[O-]`, the melting point was 31 to 33 °C.

In turn, `Cc1cnc2c(c1)CCCC2(C)C(N)=S` (centres undefined) had a melting point of 164 °C.

Compound `CN(C)Cc1ccc2cc(NC(=O)c3ccc(-c4ccc(F)cc4)cc3)ccc2n1` displayed a melting point of 205 to 208 °C.

For `COc1nc(N)nc2c1ncn2[C@H]1C[C@H](O)[C@@H](CO)O1`, the melting point lay within 155 to 157 °C.

`COC(=O)c1cc(N2CCOCC2)nc(Cl)n1` showed a melting point of 135 to 138 °C.

The compound `CCC(C)(C)Cc1ccc(C(=O)O)c(=O)[nH]1` returned a melting point of 170 to 172 °C.

Compound `O=C(Cc1ccsc1)Nc1ccc(Br)cn1` displayed a melting point of 117 °C.

Take `Cc1ccc(C(=O)c2ccc(CC(=O)O)n2C)s1`: the melting point lay in the range of 152 to 154 °C.

For `CCOc1cc2ncc(NCc3ccccc3)nc2cc1OCC`, the melting point was 136 °C.

`CC(CC(=O)O)CC(=O)Nc1ccc(Cl)cc1` (centres undefined) had a melting point of 116 to 118 °C.

For `Oc1ccc2ccc(OCc3nc4ccccc4s3)cc2c1`, the melting point fell in the range of 205 to 207 °C.

`CC(=O)Oc1ccc(CCC(=O)Nc2cc(C)c(O)c(C)c2)cc1OC(C)=O` registered a melting point of 118 to 119 °C.

Compound `COCC(=O)c1c(Cl)ccc(F)c1Cl` had a melting point of 36.7 to 39.4 °C.

`CC(=O)OC1C(N(C)S(C)(=O)=O)c2cc(OCc3ccccc3)ccc2OC1(C)C` (centres undefined) came in with a melting point of 124 to 125 °C.

`O=C(Nc1ccc2oc(N3CCOCC3)cc(=O)c2c1)OCc1ccccc1` had a melting point of 245 to 250 °C.

On to `COc1ccc2c(c1)c(CC(=O)O)c(C)n2C(=O)c1ccc([N+](=O)[O-])o1`, for which the melting point was 178 to 180 °C.

`COc1cc(C)c(C(=O)CCCCCCCCCCCCCCCCCO)c(O)c1OC` gave a melting point of 101 °C.

Turning to `O=C1CC2c3c(Br)cccc3CCC23OCC(c2ccccc2)N13` (centres undefined), the melting point is 123 to 126 °C.

With `CC(C)(C)OC(=O)NN1CCC(C(=O)O)CC1`, the melting point was 133 to 135 °C.

As to `O=C(Nc1ccc(Oc2ccnc(NC3CCCC3)n2)c2ccccc12)c1cc(F)cc(N2CCOCC2)c1`, the melting point was in the range of 119 to 120 °C.

`CC(=O)Nc1ccccc1N(CC(=O)OC(C)(C)C)C(=O)CN1C(=O)c2ccccc2C1=O` registered a melting point of 170 °C.

`CC1=CC(=O)C=C2CCC3C4CCC(=O)C4(C)CCC3C12C` (centres undefined) yielded a melting point of 165 to 167 °C.

The compound `Cc1ccc(C=O)n1Cc1ccc(Cl)cc1Cl` registered a melting point of 86 to 87 °C.

The compound `Cc1[nH]cnc1CCCCNC(=O)c1ccccc1` came in with a melting point of 124 to 128 °C.

In turn, `C[C@H]([C@](O)(Cn1cncn1)c1ccc(F)cc1F)S(=O)(=O)N1CCN(c2ccc(-n3cnn(CC(F)(F)F)c3=O)cc2)CC1` displayed a melting point of 237 to 239 °C.

`COc1c(-c2cc3c(s2)CCC(CO)C3)ccc2c(=O)c(C(=O)O)cn(C3CC3)c12` (centres undefined): the melting point fell in the range of 218 to 219 °C.

Compound `CCOC(=O)CN(c1cccc2cc(-c3nccs3)n(COC)c12)S(=O)(=O)c1cccs1` gave a melting point of 124 to 125 °C.

The compound `COCCNCC(O)c1ccccc1` (centres undefined) displayed a melting point of 77 to 80 °C.

Take `CCC(C(N)=O)c1c(C(O)(C(F)(F)F)C(F)(F)F)ccc2ccccc12` (centres undefined): the melting point was in the range of 189 to 190 °C.

With `Cc1ccc(N2CCSC2N)c([N+](=O)[O-])c1` (centres undefined), the melting point lay in the range of 132 to 134 °C.

For the compound `CC(=O)Nc1ccc(Br)c(C)n1`, the melting point was 156 to 157 °C.

Turning to `CCOC=Nc1ccc2nnc(-c3ccc([N+](=O)[O-])s3)n2n1`, the melting point was 180 to 182 °C.

With `COc1cc2c(Nc3cccc(Cl)c3F)ncnc2cc1OC1CCN(C(=O)[C@@H](O)C(C)(C)C)CC1`, the melting point lay within 205 to 206 °C.

The compound `Cc1nc(C)c2c(n1)CN=C(c1ccccc1)c1cc(Cl)ccc1-2` gave a melting point of 121 to 124 °C.

On to `O=C(NOCC(=O)N1CCCC1C(=O)O)NN1CCCC1C(=O)O` (centres undefined), for which the melting point fell in the range of 157 to 160 °C.

The compound `COc1cccc(NC(=O)[C@H](CC(=O)OC(C)(C)C)NC(=O)OCc2ccccc2)c1` gave a melting point of 68 to 69 °C.

For the compound `Cc1ccc(-n2c(=O)cc(C(F)(F)F)[nH]c2=S)cc1OC(C)C`, the melting point is 227 to 228 °C.

In turn, `Cc1nc(N2CCN(CC3CC3(F)F)C2=O)sc1C(=O)NCc1cccnc1` (centres undefined) showed a melting point of 169 to 171 °C.

As for `CN(C)C(=O)C1CCN(c2c(Cl)cncc2Cl)CC1`, the melting point is 120 to 122 °C.

Regarding `COc1ccc2c(c1)Sc1nccnc1N2`, the melting point was 210 to 211 °C.

Compound `COc1ccc(Sc2cc3c(cc2Cl)C=C(C(=O)O)C(C(F)(F)F)O3)cc1` (centres undefined) showed a melting point of 239 to 242 °C.

The compound `CS(=O)(=O)OC(c1ccc(C(OS(C)(=O)=O)(C(F)(F)F)C(F)(F)F)cc1)(C(F)(F)F)C(F)(F)F` displayed a melting point of 151 °C.

In turn, `O=C1N(C/C=C/c2ccccc2[N+](=O)[O-])CCN1c1ccncc1` came in with a melting point of 205 to 206 °C.

`COc1ccc2c(c1)C13CCN(C#N)C(C2)C1C(C)CC(=O)C3` (centres undefined) showed a melting point of 202 to 205 °C.

Compound `O=C(Nc1ccc(Cl)cn1)c1cc(Cl)ccc1NCC1CCN(C(=O)N2CCOCC2)CC1` gave a melting point of 105 to 107 °C.

In the case of `Nc1cc(=O)[nH]c(=O)n1C1CCc2ccccc21` (centres undefined), the melting point was above 295 °C.

As to `COc1cc(OC)c([N+](=O)[O-])cc1C(=O)CCCCCl`, the melting point lay in the range of 93 to 95 °C.

Take `CCN(CC)Cc1cnc2cc(NC(=O)c3ccc(-c4ccc(F)cc4)cc3)c(C)cc2c1`: the melting point is 145 to 148 °C.

Regarding `NC(=O)c1ccc(N2CCN(CCC3CCc4ccccc43)CC2)cc1` (centres undefined), the melting point fell in the range of 204 to 205 °C.

`CC(C)(C(=O)O)c1ccsc1` yielded a melting point of 78 to 80.5 °C.

In the case of `COC(=O)c1ccc(Nc2ccc(C#N)cc2N)cc1`, the melting point lay in the range of 164 to 165 °C.

As to `COC(=O)C1=C(OS(=O)(=O)c2ccc([N+](=O)[O-])cc2)C(=O)O[C@@H]1C`, the melting point lay in the range of 123 to 124 °C.

`Oc1ccc(N2CCN(Cc3nc4ccccc4[nH]3)CC2)cc1`: the melting point lay within 206 to 209 °C.

`COCc1nc(C(C)(C)O)c(C(=O)OCOC(=O)C(C)(C)C)n1Cc1ccc(-c2ccccc2-c2nnn[nH]2)cc1`: the melting point is 71 to 72 °C.

`COc1ccc(C(=O)O)c2c1OC(C)(C)C2` returned a melting point of 147 to 149 °C.

The compound `COc1ccc2c(c1)CNCC(=O)N2` registered a melting point of 148 °C.

Regarding `O=S1N=C(NCCCN(Cc2ccccc2)c2ccccn2)C(NCc2ccccn2)=N1` (centres undefined), the melting point fell in the range of 139 to 140 °C.

As to `CC1c2ccccc2Cn2cc3c(c21)C(=O)c1ccccc1C3=O` (centres undefined), the melting point fell in the range of 215 to 218 °C.

As to `CC(=O)On1c(=O)c(=O)[nH]c2cc(Cl)ccc21`, the melting point was determined as 219 °C.

For the compound `CC(C)(C)C(=O)C(C(CC#N)c1ccccc1)n1ccnc1` (centres undefined), the melting point lay within 108 to 111 °C.

As to `CCC(=O)N(C)c1nc(Cl)c([N+](=O)[O-])s1`, the melting point lay in the range of 132 to 133 °C.

The compound `COCCNc1ccc(CN2CCN(C(c3ccccc3)c3ccccc3)CC2)cc1[N+](=O)[O-]` came in with a melting point of 97.2 °C.

`NS(=O)(=O)c1ccc(NC(=O)CNc2ccccc2)c(F)c1` gave a melting point of 197 to 198 °C.

`Cc1cccc(S(=O)(=O)n2cncn2)c1C#N` returned a melting point of 142 to 144 °C.

`CC(C)CCNC(Nc1ccccc1)=C(C#N)C#N` showed a melting point of 183 to 185 °C.

Turning to `Cc1c(N)cccc1-c1cn(C)c(=O)c(Nc2ccc(C3C(=O)N(C)CCN3C)cc2)n1` (centres undefined), the melting point fell in the range of 133 to 134 °C.

In the case of `CCOC(=O)C(=O)Nc1c([N+](=O)[O-])ccc2ncccc12`, the melting point is 181 °C.

On to `O=C(c1ccccc1F)c1cc(Cl)ccc1C(=O)C(Br)CN1C(=O)c2ccccc2C1=O` (centres undefined), for which the melting point was in the range of 125 to 128 °C.

`Fc1ccc(Cn2c(NC3CCN(CCNCCc4c[nH]c5ccccc45)CC3)nc3ccccc32)cc1` gave a melting point of 170 °C.

As to `CN1C(=O)NC(=O)C1(C)O` (centres undefined), the melting point was in the range of 122 to 123 °C.

`COc1cc(C2CCN(C)CC2)ccc1Nc1ncc2ccc(-c3cccc(S(=O)(=O)NC(C)(C)C)c3)n2n1`: the melting point lay within 189 to 198 °C.

In turn, `O=C(Nc1ccc(Cl)cc1)N(CCCN1CCC(Cc2ccccc2)CC1)c1ccc(Cl)c(Cl)c1` came in with a melting point of 128 to 131 °C.

Compound `COc1cc(CC(=O)OC(C)(C)C)ccc1NC(=O)Nc1ccccc1C(F)(F)F` yielded a melting point of 131 to 133 °C.

Compound `Cc1cc(C2=NN(C(=O)N[C@H](C)c3ccccc3)[C@H](C)Cc3cc4c(cc32)OCO4)ccc1[N+](=O)[O-]` showed a melting point of 202 to 205 °C.

The compound `CCOC(=O)c1ccc(NCCCc2ccccc2OC)cc1` registered a melting point of 106 to 109 °C.

Consider `CC1Cc2cc3c(cc2C1=O)C(C)(C)CCC3(C)C` (centres undefined), for which the melting point fell in the range of 74 to 75.5 °C.

The compound `CCN(CC)CCn1nc2c3c(c(NCCNCCO)ccc31)Sc1c(OC)ccc(OC)c1-2` had a melting point of 119 to 123 °C.

Turning to `CC1(C)COC(=O)OC1`, the melting point was 108 to 109 °C.

Broadly, the melting point is the temperature of the solid-liquid transition.

The values are drawn from a melting point compilation (Tetko et al.; mined from patent text by program, amines drawn as free bases though some values may be those of a salt).
